Like-named read-outs stand apart in the source and are kept apart here.
Test system: plasmodium berghei
Assay: suppression of parasitemia in mice infected with plasmodium berghei
Format: in vivo
Conditions: for ED50: Plasmodium berghei, sc; for ED50 / Mean % Parasitemia / Mean % Suppression / % died: mice
Protocol: Five representative amidinoureas were tested in mice infected with plasmodium berghei. The five compounds tested are the following:
Groups of 10 mice each were used in seven doses totaling 70 mice per compound. The protozoal infection was induced by intraperitoneal injection of 5,000,000 parasitized blood cells from a donor. The compound was administered subcutaneously in doses ranging from 0.15 to 10 mg. per kg., suspended on 0.5% methacel solution (doses expressed as base). The compound was repeatedly injected on the day of inoculation (day 1), day 2 and day 3. Blood smears were performed on days 4, 5, 6 and 10.
Untreated control but infected mice developed fulminating parasitemia of as high as 35% on day 10 and deaths occurred from day 12 to 14.

[1] = s.c., 1.0 mg/kg on days 1-3, 4th day
[2] = s.c., 1.0 mg/kg on days 1-3, 5th day
[3] = s.c., 1.0 mg/kg on days 1-3, 6th day
[4] = s.c., 1.0 mg/kg on days 1-3, 10th day
[5] = s.c., 2.0 mg/kg on days 1-3, 4th day
[6] = s.c., 2.0 mg/kg on days 1-3, 5th day
[7] = s.c., 2.0 mg/kg on days 1-3, 6th day
[8] = s.c., 2.0 mg/kg on days 1-3, 10th day
[9] = s.c., 10.0 mg/kg on days 1-3, 4th day
[10] = s.c., 10.0 mg/kg on days 1-3, 5th day
[11] = s.c., 10.0 mg/kg on days 1-3, 6th day
[12] = s.c., 10.0 mg/kg on days 1-3, 10th day
[13] = s.c., .15 mg/kg on days 1-3, 4th day
[14] = s.c., .15 mg/kg on days 1-3, 5th day
[15] = s.c., .15 mg/kg on days 1-3, 6th day
[16] = s.c., .15 mg/kg on days 1-3, 10th day
[17] = s.c., .20 mg/kg on days 1-3, 4th day
[18] = s.c., .20 mg/kg on days 1-3, 5th day
[19] = s.c., .20 mg/kg on days 1-3, 6th day
[20] = s.c., .20 mg/kg on days 1-3, 10th day
[21] = s.c., .30 mg/kg on days 1-3, 4th day
[22] = s.c., .30 mg/kg on days 1-3, 5th day
[23] = s.c., .30 mg/kg on days 1-3, 6th day
[24] = s.c., .30 mg/kg on days 1-3, 10th day
[25] = s.c., .50 mg/kg on days 1-3, 4th day
[26] = s.c., .50 mg/kg on days 1-3, 5th day
[27] = s.c., .50 mg/kg on days 1-3, 6th day
[28] = s.c., .50 mg/kg on days 1-3, 10th day

## CNC(=N)NC(=O)Nc1c(C)cc(Br)cc1Cl.Cl [Compound C, 1-(4-bromo-2-chloro-6-methylphenyl)-3-methylamidinourea hydrochloride]
96 h, s.c., levels of parasitemia, 4th day, read-out: SED50 (Suppressant Effective Dose50)
  ED50: 1.12 mg/kg
120 h, s.c., levels of parasitemia, 5th day, read-out: SED50 (Suppressant Effective Dose50)
  ED50: 1.12 mg/kg
144 h, s.c., levels of parasitemia, 6th day, read-out: SED50 (Suppressant Effective Dose50)
  ED50: 1.39 mg/kg
240 h, s.c., levels of parasitemia, 10th day, read-out: SED50 (Suppressant Effective Dose50)
  ED50: 3.99 mg/kg
Day 4 to day 10, read-out: HIGHEST SED50
  ED50: 3.99 mg/kg
Day 4 to day 10, read-out: LOWEST SED50
  ED50: 1.12 mg/kg
Factor of change, day 4 to day 10, duration of action
  FACTOR (HIGHEST SED50 ÷ LOWEST SED50): 3.56
[1]
  Mean % Parasitemia: 2.75%
  Mean % Suppression: 47.6%
[2]
  Mean % Parasitemia: 3.60%
  Mean % Suppression: 50.7%
[3]
  Mean % Parasitemia: 5.20%
  Mean % Suppression: 44.1%
[4]
  Mean % Parasitemia: 28.30%
  Mean % Suppression: 20.3%
s.c., 1.0 mg/kg on days 1-3, 12th day
  % died: 20%
s.c., 1.0 mg/kg on days 1-3, 13th day
  % died: 60%
s.c., 1.0 mg/kg on days 1-3, 14th day
  % died: 60%
[5]
  Mean % Parasitemia: 1.50%
  Mean % Suppression: 71.4%
[6]
  Mean % Parasitemia: 1.90%
  Mean % Suppression: 74.0%
[7]
  Mean % Parasitemia: 4.10%
  Mean % Suppression: 56.0%
[8]
  Mean % Parasitemia: 24.28%
  Mean % Suppression: 31.6%
s.c., 2.0 mg/kg on days 1-3, 12th day
  % died: 20%
s.c., 2.0 mg/kg on days 1-3, 13th day
  % died: 20%
s.c., 2.0 mg/kg on days 1-3, 14th day
  % died: 40%
[9]
  Mean % Parasitemia: 0%
  Mean % Suppression: 100.0%
[10]
  Mean % Parasitemia: 0%
  Mean % Suppression: 100.0%
[11]
  Mean % Parasitemia: 0%
  Mean % Suppression: 100.0%
[12]
  Mean % Parasitemia: 0%
  Mean % Suppression: 100.0%
s.c., 10.0 mg/kg on days 1-3, 12th day
  % died: 0%
s.c., 10.0 mg/kg on days 1-3, 13th day
  % died: 0%
s.c., 10.0 mg/kg on days 1-3, 14th day
  % died: 0%
[13]
  Mean % Parasitemia: 5.00%
  Mean % Suppression: 4.8%
[14]
  Mean % Parasitemia: 7.20%
  Mean % Suppression: 1.4%
[15]
  Mean % Parasitemia: 9.20%
  Mean % Suppression: 1.1%
[16]
  Mean % Parasitemia: 35.40%
  Mean % Suppression: 0.3%
s.c., .15 mg/kg on days 1-3, 12th day
  % died: 20%
s.c., .15 mg/kg on days 1-3, 13th day
  % died: 40%
s.c., .15 mg/kg on days 1-3, 14th day
  % died: 80%
[17]
  Mean % Parasitemia: 5.00%
  Mean % Suppression: 4.8%
[18]
  Mean % Parasitemia: 6.25%
  Mean % Suppression: 14.4%
[19]
  Mean % Parasitemia: 9.10%
  Mean % Suppression: 2.2%
[20]
  Mean % Parasitemia: 35.10%
  Mean % Suppression: 1.1%
s.c., .20 mg/kg on days 1-3, 12th day
  % died: 40%
s.c., .20 mg/kg on days 1-3, 13th day
  % died: 60%
s.c., .20 mg/kg on days 1-3, 14th day
  % died: 60%
[21]
  Mean % Parasitemia: 4.75%
  Mean % Suppression: 9.5%
[22]
  Mean % Parasitemia: 6.00%
  Mean % Suppression: 17.8%
[23]
  Mean % Parasitemia: 8.30%
  Mean % Suppression: 10.8%
[24]
  Mean % Parasitemia: 33.40%
  Mean % Suppression: 5.9%
s.c., .30 mg/kg on days 1-3, 12th day
  % died: 20%
s.c., .30 mg/kg on days 1-3, 13th day
  % died: 40%
s.c., .30 mg/kg on days 1-3, 14th day
  % died: 80%
[25]
  Mean % Parasitemia: 4.75%
  Mean % Suppression: 9.5%
[26]
  Mean % Parasitemia: 5.20%
  Mean % Suppression: 28.8%
[27]
  Mean % Parasitemia: 7.00%
  Mean % Suppression: 24.7%
[28]
  Mean % Parasitemia: 31.40%
  Mean % Suppression: 11.5%
s.c., .50 mg/kg on days 1-3, 12th day
  % died: 0%
s.c., .50 mg/kg on days 1-3, 13th day
  % died: 20%
s.c., .50 mg/kg on days 1-3, 14th day
  % died: 80%
